The record followed here is ChEMBL document CHEMBL1129258, “Synthesis and structure-activity relationships of 2-pyridones: a novel series of potent DNA gyrase inhibitors as antibacterial agents” (J Med Chem, 1996).

≈ marks a conversion by molar mass, not a printed value. Some results are limits rather than exact numbers.

One assay has as its system Enterococcus faecalis. The experiment in a line: Inhibitory activity against enterococcus faecalis Van B. The assay is classed as functional.
In a further assay the test system is Enterococcus faecium. Put plainly: Inhibitory activity against enterococcus faecium Van A. The assay is classed as functional.
Assay [1] has as its target T1, DNA gyrase (Escherichia coli) (UniProt P0AES6+P0AES4). The experiment in a line: In vivo efficacy against Escherichia coli JUHL after oral administration. Format: functional, organism-based. The conditions noted are these: Escherichia coli K-12.
Assay [2] has as its target T1, DNA gyrase (Escherichia coli). The experiment in a line: In vivo efficacy against Escherichia coli JUHL by subcutaneous administration. Format: functional, organism-based. The conditions noted are these: Escherichia coli K-12.
The nature of assay [3]: In vivo efficacy against Pseudomonas aeruginosa 5007 after subcutaneous administration. The assay is classed as functional. The conditions noted are these: Pseudomonas aeruginosa, sc; read-out: ED50.
For assay [4], the target named is T2, DNA gyrase (Staphylococcus aureus) (UniProt P0A0K8+P20831). Put plainly: In vivo efficacy against Staphylococcus aureus NCTC-10649M after oral administration. The assay is classed as functional, organism-based.
Assay [5] concerns the target T2, DNA gyrase (Staphylococcus aureus). The experiment in a line: In vivo efficacy against Staphylococcus aureus NCTC-10649M after subcutaneous administration. The assay is classed as functional, organism-based.
Assay [6] concerns Streptococcus pneumoniae. Put plainly: In vivo efficacy against Strep. administration. The assay is classed as functional.
A further assay deals with Pseudomonas aeruginosa. Put plainly: In vivo efficacy against Pseudomonas aeruginosa 5007 following p.o. administration.
For assay [7], the target named is T1, DNA gyrase (Escherichia coli). The experiment in a line: In vitro antibacterial activity against gram-negative organism […] ATCC 13048. Format: functional. The conditions noted are these: Enterobacter aerogenes.
For assay [8] the target is unchanged. Put plainly: In vitro antibacterial against gram-negative organism Escherichia coli JUHL. The assay is classed as functional. To be noted: Escherichia coli K-12.
The target is the same in assay [9]. Put plainly: In vitro antibacterial activity against gram-negative organism Klebsiella pneumoniae ATCC 8045. The assay is classed as functional.
Assay [10] has the same target. The experiment in a line: In vitro antibacterial activity against gram-negative organism Prov. stuartii CMX-640. The assay is classed as functional. To be noted: Providencia stuartii.
In assay [11] the target is T2, DNA gyrase (Staphylococcus aureus). Put plainly: In vitro antibacterial activity against gram-positive organism Staphylococcus aureus 1775. Format: functional.
The target is the same in assay [12]. The experiment in a line: In vitro antibacterial activity against gram-positive organism Staphylococcus aureus ATCC 6538p. The assay is classed as functional.
The target is the same in assay [13]. The experiment in a line: In vitro antibacterial activity against gram-positive organism Staphylococcus aureus NCTC-10649M. Format: functional.
Assay [14] deals with T1, DNA gyrase (Escherichia coli). Put plainly: In vitro antibacterial activity against gram-positive organism Streptococcus bovis A-5169. The assay is classed as functional. The conditions noted are these: Streptococcus equinus.
The target is the same in assay [15]. Put plainly: In vitro antibacterial activity against gram-positive organism Enterococcus faecium ATCC 8043. Format: functional.
A short description of assay [16]: In vitro antibacterial activity against gram-negative organism Pseudomonas aeruginosa 5007. To be noted: Pseudomonas aeruginosa; read-out: MIC. The assay is classed as functional.
Assay [17] in a line: In vitro antibacterial activity against gram-negative organism Pseudomonas aeruginosa DPHD-2862. The assay is classed as functional. The conditions noted are these: Pseudomonas aeruginosa; read-out: MIC.
Assay [18] concerns Streptococcus pneumoniae. The experiment in a line: In vivo efficacy against Strep. administered. The assay is classed as functional. The conditions noted are these: Streptococcus pneumoniae; read-out: ED50.
The subject of the next assay is Streptococcus pyogenes. Put plainly: In vitro antibacterial activity against gram-positive organism Streptococcus pyogenes EES61. Format: functional.

T2 sequence (P0A0K8 2-644 limits assumed): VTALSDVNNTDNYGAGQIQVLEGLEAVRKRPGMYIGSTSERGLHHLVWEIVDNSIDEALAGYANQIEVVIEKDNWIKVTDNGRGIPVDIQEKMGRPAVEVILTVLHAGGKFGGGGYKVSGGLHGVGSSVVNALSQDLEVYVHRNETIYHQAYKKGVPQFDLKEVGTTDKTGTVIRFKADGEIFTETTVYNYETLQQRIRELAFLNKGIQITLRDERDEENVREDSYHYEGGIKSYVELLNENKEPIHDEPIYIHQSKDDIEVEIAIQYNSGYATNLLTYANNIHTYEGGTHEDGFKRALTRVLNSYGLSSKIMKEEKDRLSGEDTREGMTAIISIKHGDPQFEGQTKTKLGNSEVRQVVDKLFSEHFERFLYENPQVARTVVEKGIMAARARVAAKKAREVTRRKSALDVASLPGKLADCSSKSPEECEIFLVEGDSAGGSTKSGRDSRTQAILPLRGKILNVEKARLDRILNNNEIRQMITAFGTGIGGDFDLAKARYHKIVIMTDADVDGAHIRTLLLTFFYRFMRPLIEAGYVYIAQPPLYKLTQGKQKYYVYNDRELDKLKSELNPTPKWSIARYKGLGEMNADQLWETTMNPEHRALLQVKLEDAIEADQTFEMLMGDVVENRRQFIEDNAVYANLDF
T2 sequence (P20831 whole entry partner): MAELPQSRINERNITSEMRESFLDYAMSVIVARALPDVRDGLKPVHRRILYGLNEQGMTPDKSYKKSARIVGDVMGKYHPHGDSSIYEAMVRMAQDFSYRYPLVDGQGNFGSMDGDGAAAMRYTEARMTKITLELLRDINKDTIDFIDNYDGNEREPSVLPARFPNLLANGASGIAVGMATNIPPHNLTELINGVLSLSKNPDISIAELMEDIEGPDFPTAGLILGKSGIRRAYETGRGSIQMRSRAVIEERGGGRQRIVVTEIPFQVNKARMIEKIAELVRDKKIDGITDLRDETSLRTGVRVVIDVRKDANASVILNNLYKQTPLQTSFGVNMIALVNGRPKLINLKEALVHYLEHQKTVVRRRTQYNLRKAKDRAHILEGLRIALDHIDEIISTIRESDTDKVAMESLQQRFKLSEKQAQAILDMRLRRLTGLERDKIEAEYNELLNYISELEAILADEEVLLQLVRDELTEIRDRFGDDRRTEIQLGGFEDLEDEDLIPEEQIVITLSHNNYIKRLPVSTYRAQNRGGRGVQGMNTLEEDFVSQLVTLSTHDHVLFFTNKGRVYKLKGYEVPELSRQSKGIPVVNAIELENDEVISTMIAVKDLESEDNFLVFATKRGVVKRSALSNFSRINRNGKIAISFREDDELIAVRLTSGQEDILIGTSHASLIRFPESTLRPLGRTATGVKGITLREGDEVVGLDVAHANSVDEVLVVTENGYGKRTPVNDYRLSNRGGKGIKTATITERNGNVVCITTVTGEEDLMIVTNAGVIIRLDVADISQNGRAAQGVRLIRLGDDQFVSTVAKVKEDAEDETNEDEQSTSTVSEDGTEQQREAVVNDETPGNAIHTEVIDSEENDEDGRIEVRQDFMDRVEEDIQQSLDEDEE

Consider `CN[C@H](CC(C)C)C(=O)N[C@H]1C(=O)N[C@@H](CC(N)=O)C(=O)N[C@H]2C(=O)N[C@H]3C(=O)N[C@H](C(=O)N[C@H](C(=O)O)c4cc(O)cc(O)c4-c4cc3ccc4O)[C@H](O)c3ccc(c(Cl)c3)Oc3cc2cc(c3O[C@@H]2O[C@H](CO)[C@@H](O)[C@H](O)[C@H]2O[C@H]2C[C@](C)(N)[C@H](O)[C@H](C)O2)Oc2ccc(cc2Cl)[C@H]1O` [VANCOMYCIN], for which the MIC with Enterococcus faecalis was 32 µg/mL (≈ 22.1 µM); against Enterococcus faecium, greater than 128 µg/mL.
Turning to `CC(NC1CCN(c2nc3c(-c4ccc(F)cc4F)cc(C(=O)O)c(=O)n3cc2F)C1)C(=O)O` (centres undefined), the ED50 in [1] was 16.6 mg/kg; in assay [2] it was less than 2.5 mg/kg; in assay [3], 34.4 mg/kg; in assay [4] it was 14.4 mg/kg; in [5], 2.7 mg/kg; in the assay on Streptococcus pneumoniae [6], 79.8 mg/kg. For the same compound, the ED50 with Streptococcus pneumoniae [6] (Streptococcus pneumoniae, read-out: ED50) came out at 164 mg/kg; with Pseudomonas aeruginosa it was 68.8 mg/kg.
In the case of `Cc1c(N2C[C@@H]3CCN[C@@H]3C2)c(F)cn2c(=O)c(C(=O)O)cc(C3CC3)c12` (stereo in doubt; (S,S)45o), the ED50 in assay [1] is greater than 10 mg/kg; in [2], 0.8 mg/kg; in assay [4] it was 5 mg/kg; in [5], 1.5 mg/kg. The MIC is 0.05 µg/mL (≈ 0.135 µM) in [7]; 0.02 µg/mL (≈ 0.0538 µM) in [8]; 0.01 µg/mL (≈ 0.0269 µM) in [9]; 0.39 µg/mL (≈ 1.05 µM) in assay [10]; 3.1 µg/mL (≈ 8.35 µM) in [11]; 0.05 µg/mL (≈ 0.135 µM) in [12]. For the same compound, the MIC amounted to 0.05 µg/mL (≈ 0.135 µM) in [13], 0.1 µg/mL (≈ 0.269 µM) in [14] and 0.1 µg/mL (≈ 0.269 µM) in assay [15].
Turning to `Cc1c(N2C[C@H]3CCN[C@H]3C2)c(F)cn2c(=O)c(C(=O)O)cc(C3CC3)c12` (single isomer, unassigned), the ED50 in [1] amounted to 1.1 mg/kg; in assay [2] it was 0.5 mg/kg; in assay [3], 5 mg/kg; in assay [4] it was 1.5 mg/kg; in assay [5], 0.6 mg/kg; with Pseudomonas aeruginosa it was 17.9 mg/kg. The MIC in assay [7] stood at 0.05 µg/mL (≈ 0.135 µM); in assay [8], 0.05 µg/mL (≈ 0.135 µM); in [9] it was 0.02 µg/mL (≈ 0.0538 µM); in assay [10], 0.39 µg/mL (≈ 1.05 µM); in assay [16] it was 0.39 µg/mL (≈ 1.05 µM); in assay [17], 6.2 µg/mL (≈ 16.7 µM). Moreover, the MIC in assay [11] came to 6.2 µg/mL (≈ 16.7 µM); in [12] it was 0.05 µg/mL (≈ 0.135 µM); in [13], 0.1 µg/mL (≈ 0.269 µM); in assay [14], 0.39 µg/mL (≈ 1.05 µM); in [15], 0.2 µg/mL (≈ 0.538 µM).
`Cc1c(N2C[C@@H]3CCCN[C@@H]3C2)c(F)cn2c(=O)c(C(=O)O)cc(C3CC3)c12` (stereo in doubt; (S,S)45n) [listing 1 of 2 here]: the ED50 in assay [1] came out at 1 mg/kg; in assay [4], 2.5 mg/kg; in [5], 0.5 mg/kg; in the assay with Pseudomonas aeruginosa, 21.4 mg/kg. For the same compound, the MIC stood at 0.02 µg/mL (≈ 0.0519 µM) in [7]; 0.005 µg/mL (≈ 0.013 µM) in [8]; 0.01 µg/mL (≈ 0.0259 µM) in assay [9]; 0.39 µg/mL (≈ 1.01 µM) in assay [10]; 0.39 µg/mL (≈ 1.01 µM) in assay [11]; 0.01 µg/mL (≈ 0.0259 µM) in assay [12]. Further, the MIC in [13] stood at 0.01 µg/mL (≈ 0.0259 µM); in assay [14], 0.05 µg/mL (≈ 0.13 µM); in assay [15], 0.1 µg/mL (≈ 0.259 µM).
On to `Cl.O=C(O)c1cn(C2CC2)c2cc(N3CCNCC3)c(F)cc2c1=O` [CIPROFLOXACIN HYDROCHLORIDE], for which the MIC against Enterococcus faecalis was 1 µg/mL; in the assay on Enterococcus faecium, 4 µg/mL; in assay [11], greater than 100 µg/mL; in assay [12] it was 0.2 µg/mL; in [13], 0.39 µg/mL.
As for `Cc1c(N2C[C@@H]3CCCN[C@@H]3C2)c(F)cn2c(=O)c(C(=O)O)cc(C3CC3)c12` (stereo in doubt; (S,S)45n) [listing 2 of 2 here], the results for the ED50 (in assay [3]; with Streptococcus pneumoniae [18]; with Streptococcus pneumoniae [6]) were greater than 8 mg/kg, 2.2 mg/kg and 3.6 mg/kg, respectively. In addition, the MIC in assay [16] is 0.2 µg/mL (≈ 0.519 µM); in assay [17] it was 3.1 µg/mL (≈ 8.04 µM); in the assay on Streptococcus pyogenes, 0.05 µg/mL (≈ 0.13 µM).

What is called ED50 is the dose at which the effect has come halfway, by size or by number of responders.
